For 26 molecules, IC50 results are on record in patent publication US11926614B2, “1,2,4-triazole derivatives as tankyrase inhibitors” (priority 2018, dated 2024).

Molecules are shown by their SMILES. pIC50: −log10 of the molar value. Like-named read-outs stand apart in the source and are kept apart here.

One test has as its target TNKS2 (Homo sapiens (Human), UniProt Q9H2K2). Description: Biochemical IC50 TNKS2. An excerpt:
(§1) XLfit (idbs) was used to determine the IC50-values in inhibition experiments. The following formula was chosen to fit the data points (Langmuir Binding Isotherm): fit=((A+(B*x))+4(C−B)*(1−exp((−1*D)*x)))/D)), res=(y−fit)

The subject of the next test is HEK293. Description: Cellular IC50 HEK293. In kind it is cell-based.
From the text: as §1

The mark [1] stands for this setting: read-out: Biochemical IC50 TNKS2.
Where [2] appears, read: Homo sapiens, HEK293, HEK293; read-out: Cellular IC50 HEK293.
Setting [3] is: Homo sapiens, HEK293, read-out: Cellular IC50 HEK293.
Setting [4] is: Homo sapiens, HEK293; read-out: Cellular IC50 HEK293.

Chain of TNKS2 (Q9H2K2 whole entry): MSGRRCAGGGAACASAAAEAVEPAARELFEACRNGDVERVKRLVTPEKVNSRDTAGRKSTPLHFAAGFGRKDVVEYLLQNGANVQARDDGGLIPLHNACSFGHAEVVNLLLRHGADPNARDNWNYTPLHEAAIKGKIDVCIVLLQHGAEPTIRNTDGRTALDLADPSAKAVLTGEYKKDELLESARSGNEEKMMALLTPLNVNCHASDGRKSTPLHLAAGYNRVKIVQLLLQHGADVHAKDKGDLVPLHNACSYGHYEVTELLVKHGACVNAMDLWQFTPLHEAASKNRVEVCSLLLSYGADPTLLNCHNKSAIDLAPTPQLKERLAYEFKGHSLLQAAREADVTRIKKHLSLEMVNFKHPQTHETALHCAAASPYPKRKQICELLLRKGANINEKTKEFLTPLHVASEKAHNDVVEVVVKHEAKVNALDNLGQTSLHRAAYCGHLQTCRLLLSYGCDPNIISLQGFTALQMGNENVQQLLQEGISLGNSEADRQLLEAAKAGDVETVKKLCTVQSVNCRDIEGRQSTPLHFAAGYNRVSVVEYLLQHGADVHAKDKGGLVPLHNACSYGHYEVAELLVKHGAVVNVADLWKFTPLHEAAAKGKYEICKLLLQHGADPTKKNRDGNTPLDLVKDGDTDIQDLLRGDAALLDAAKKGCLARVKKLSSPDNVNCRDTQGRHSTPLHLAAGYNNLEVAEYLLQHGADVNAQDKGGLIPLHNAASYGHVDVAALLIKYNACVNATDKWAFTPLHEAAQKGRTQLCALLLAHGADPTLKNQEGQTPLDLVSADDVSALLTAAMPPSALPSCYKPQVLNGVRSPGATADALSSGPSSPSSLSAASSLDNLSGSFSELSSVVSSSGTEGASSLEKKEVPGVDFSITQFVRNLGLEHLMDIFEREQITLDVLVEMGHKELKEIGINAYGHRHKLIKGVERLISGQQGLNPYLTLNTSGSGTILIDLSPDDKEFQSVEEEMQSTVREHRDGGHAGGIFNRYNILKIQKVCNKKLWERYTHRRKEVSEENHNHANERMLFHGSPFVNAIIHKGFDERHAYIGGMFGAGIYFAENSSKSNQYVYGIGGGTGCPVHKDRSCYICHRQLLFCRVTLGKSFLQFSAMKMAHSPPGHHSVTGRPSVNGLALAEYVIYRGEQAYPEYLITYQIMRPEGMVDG

As to `CCOc1ccc(-c2nnc([C@H]3C[C@H](NC(=O)c4ccnc5cccnc45)C3)n2-c2ccccc2Cl)nc1` [Example 135, N-((1S,3r)-3-(4-(2-chlorophenyl)-5-(5-ethoxypyridin-2-yl)-4H-1,2,4-triazol-3-yl)cyclobutyl)-1,5-naphthyridine-4-carboxamide], the pIC50 (in general, the negative decadic logarithm of the IC50, by convention in mol/L) was 8.72 on TNKS2 (setting [1]) and 9.48 in the test with HEK293 (setting [2]).

On to `O=C(N[C@H]1C[C@H](c2nnc(-c3nccs3)n2-c2ccccc2Cl)C1)c1ccccc1` [Example 43, N-((1S,3r)-3-(4-(2-chlorophenyl)-5-(thiazol-2-yl)-4H-1,2,4-triazol-3-yl)cyclobutyl)benzamide], for which the pIC50 on TNKS2 (setting [1]) was 8.10; with HEK293 (setting [2]) it was 7.09.

For `CCOc1ccc(-c2nnc([C@H]3C[C@H](NC(=O)c4nn(C)c5ccccc45)C3)n2-c2ccccc2F)nc1` [Example 153, N-((1S,3r)-3-(5-(5-ethoxypyridin-2-yl)-4-(2-fluorophenyl)-4H-1,2,4-triazol-3-yl)cyclobutyl)-1-methyl-1H-indazole-3-carboxamide], the negative logarithm of the IC50 (pIC50) at TNKS2 (setting [1]) was 7.89; in the test on HEK293 (setting [2]) it was 7.25.

On to `CCOc1ccc(-c2nnc([C@H]3C[C@H](NC(=O)c4cn(C)cn4)C3)n2-c2ccccc2F)nc1` [Example 117, N-((1S,3r)-3-(5-(5-ethoxypyridin-2-yl)-4-(2-fluorophenyl)-4H-1,2,4-triazol-3-yl)cyclobutyl)-1-methyl-1H-imidazole-4-carboxamide], for which the results for the pIC50 on TNKS2 (setting [1]) and with HEK293 (setting [2]) were 7.06 and 6.26, respectively.

In the case of `O=C(N[C@H]1C[C@H](c2nnc(-c3ccncn3)n2-c2ccccc2Cl)C1)c1cccc(F)c1` [Example 14, N-((1S,3r)-3-(4-(2-chlorophenyl)-5-(pyrimidin-4-yl)-4H-1,2,4-triazol-3-yl)cyclobutyl)-3-fluorobenzamide], the pIC50 on TNKS2 (setting [1]) is 8.17; in the test with HEK293 (setting [2]), 7.40.

`O=C(N[C@H]1C[C@H](c2nnc(-c3nccs3)n2-c2ccccc2F)C1)c1ccccc1` [Example 27, N-((1S,3r)-3-(4-(2-fluorophenyl)-5-(thiazol-2-yl)-4H-1,2,4-triazol-3-yl)cyclobutyl)benzamide]: the negative-log IC50 (pIC50) at TNKS2 (setting [1]) is 6.60; in the test with HEK293 (setting [2]) it was 6.33.

Turning to `O=C(N[C@H]1C[C@H](c2nnc(-c3nccs3)n2-c2ccccc2Cl)C1)c1ccc(F)cc1` [Example 44, N-((1S,3r)-3-(4-(2-chlorophenyl)-5-(thiazol-2-yl)-4H-1,2,4-triazol-3-yl)cyclobutyl)-4-fluorobenzamide], the pIC50 at TNKS2 (setting [1]) was 7.89; in the test on HEK293 (setting [2]) it was 7.30.

In the case of `O=C(N[C@H]1C[C@H](c2nnc(-c3cnccn3)n2-c2ccccc2F)C1)c1ccccn1` [Example 91, N-((1S,3r)-3-(4-(2-fluorophenyl)-5-(pyrazin-2-yl)-4H-1,2,4-triazol-3-yl)cyclobutyl)picolinamide], the pIC50 at TNKS2 (setting [1]) is 6.55; in the test with HEK293 (setting [3]), 6.45.

`CCOc1ccc(-c2nnc([C@H]3C[C@H](NC(=O)c4cc5cnccc5[nH]4)C3)n2-c2ccccc2F)nc1` [Example 157, N-((1S,3r)-3-(5-(5-ethoxypyridin-2-yl)-4-(2-fluorophenyl)-4H-1,2,4-triazol-3-yl)cyclobutyl)-1H-pyrrolo[3,2-c]pyridine-2-carboxamide]: the negative logarithm of the IC50 (pIC50) is 8.36 at TNKS2 (setting [1]) and 7.47 with HEK293 (setting [2]).

Consider `O=C(N[C@H]1C[C@H](c2nnc(-c3nccs3)n2-c2ccc(Cl)s2)C1)c1ccccn1` [Example 79, N-((1r,3r)-3-(4-(5-chlorothiophen-2-yl)-5-(thiazol-2-yl)-4H-1,2,4-triazol-3-yl)cyclobutyl)picolinamide], for which the pIC50 at TNKS2 (setting [1]) is 7.57; in the test on HEK293 (setting [2]), 6.85.

Regarding `CCOc1ccc(-c2nnc([C@H]3C[C@H](NC(=O)c4ccc5ncccc5n4)C3)n2-c2ccccc2F)nc1` [Example 96, N-((1S,3r)-3-(5-(5-ethoxypyridin-2-yl)-4-(2-fluorophenyl)-4H-1,2,4-triazol-3-yl)cyclobutyl)-1,5-naphthyridine-2-carboxamide], the negative-log IC50 (pIC50) at TNKS2 (setting [1]) was 8.82; with HEK293 (setting [3]), 8.30.

For `O=C(N[C@H]1C[C@H](c2nnc(-c3ccncn3)n2-c2ccccc2Cl)C1)c1ccncn1` [Example 11, N-((1S,3r)-3-(4-(2-chlorophenyl)-5-(pyrimidin-4-yl)-4H-1,2,4-triazol-3-yl)cyclobutyl)pyrimidine-4-carboxamide], the negative logarithm of the IC50 (pIC50) on TNKS2 (setting [1]) was 8.46; with HEK293 (setting [2]), 8.40.

Regarding `CCOc1ccc(-c2nnc([C@H]3C[C@H](NC(=O)c4cccc5cccnc45)C3)n2-c2cccc(Cl)c2)nc1` [Example 139, N-((1r,3r)-3-(4-(3-chlorophenyl)-5-(5-ethoxypyridin-2-yl)-4H-1,2,4-triazol-3-yl)cyclobutyl)quinoline-8-carboxamide], the pIC50 is 8.06 at TNKS2 (setting [1]) and 8.40 with HEK293 (setting [2]).

As to `CCOc1ccc(-c2nnc([C@H]3C[C@H](NC(=O)c4ccnc5cccnc45)C3)n2-c2ccc(C)s2)nc1` [Example 82, N-((1r,3r)-3-(5-(5-ethoxypyridin-2-yl)-4-(5-methylthiophen-2-yl)-4H-1,2,4-triazol-3-yl)cyclobutyl)-1,5-naphthyridine-4-carboxamide], the pIC50 on TNKS2 (setting [1]) is 9.14; with HEK293 (setting [3]), 9.09.

As to `CCOc1ccc(-c2nnc([C@H]3C[C@H](NC(=O)c4ccccn4)C3)n2-c2cccc(Cl)c2)nc1` [Example 140, N-((1r,3r)-3-(4-(3-chlorophenyl)-5-(5-ethoxypyridin-2-yl)-4H-1,2,4-triazol-3-yl)cyclobutyl)picolinamide], the figures for the pIC50 on TNKS2 (setting [1]) and in the test on HEK293 (setting [3]) were 7.89 and 7.08, respectively.

On to `CCOc1ccc(-c2nnc([C@H]3C[C@H](NC(=O)c4ccc(C(C)O)cn4)C3)n2-c2ccccc2F)nc1` (mixture of isomers) [Example 100, rac-N-((1R,3r)-3-(5-(5-ethoxypyridin-2-yl)-4-(2-fluorophenyl)-4H-1,2,4-triazol-3-yl)cyclobutyl)-5-(1-hydroxyethyl)picolinamide], for which the pIC50 against TNKS2 is 8.09; in the test on HEK293 (setting [2]), 7.32.

As for `CCOc1ccc(-c2nnc([C@H]3C[C@H](NC(=O)c4ccnc5cccnc45)C3)n2-c2ccccc2F)nc1` [Example 55, N-((1S,3r)-3-(5-(5-ethoxypyridin-2-yl)-4-(2-fluorophenyl)-4H-1,2,4-triazol-3-yl)cyclobutyl)-1,5-naphthyridine-4-carboxamide], the pIC50 is 8.70 on TNKS2 (setting [1]) and 9.09 in the test on HEK293 (setting [4]).

On to `CCOc1ccc(-c2nnc([C@H]3C[C@H](NC(=O)c4cccc5cc[nH]c45)C3)n2-c2ccccc2F)nc1` [Example 115, N-((1S,3r)-3-(5-(5-ethoxypyridin-2-yl)-4-(2-fluorophenyl)-4H-1,2,4-triazol-3-yl)cyclobutyl)-1H-indole-7-carboxamide], for which the pIC50 at TNKS2 (setting [1]) is 8.00; in the test on HEK293 (setting [2]), 7.24.

For `O=C(N[C@H]1C[C@H](c2nnc(-c3ccncn3)n2-c2ccccc2Cl)C1)c1cccc2ncccc12` [Example 7, N-((1S,3r)-3-(4-(2-chlorophenyl)-5-(pyrimidin-4-yl)-4H-1,2,4-triazol-3-yl)cyclobutyl)quinoline-5-carboxamide], the pIC50 at TNKS2 (setting [1]) was 6.46; in the test on HEK293 (setting [2]) it was 6.12.

Take `CCOc1ccc(-c2nnc([C@H]3C[C@H](NC(=O)c4cccc(C(F)(F)F)n4)C3)n2-c2ccccc2F)nc1` [Example 125, N-((1S,3r)-3-(5-(5-ethoxypyridin-2-yl)-4-(2-fluorophenyl)-4H-1,2,4-triazol-3-yl)cyclobutyl)-6-(trifluoromethyl)picolinamide]: the pIC50 at TNKS2 (setting [1]) was 7.55; with HEK293 (setting [2]) it was 7.15.

As to `CCOc1ccc(-c2nnc([C@H]3C[C@H](NC(=O)c4cc(C)nc5ncnn45)C3)n2-c2ccccc2F)nc1` [Example 158, N-((1S,3r)-3-(5-(5-ethoxypyridin-2-yl)-4-(2-fluorophenyl)-4H-1,2,4-triazol-3-yl)cyclobutyl)-5-methy-[1,2,4]triazolo[1,5-a]pyrimidine-7-carboxamide], the values for the pIC50 at TNKS2 (setting [1]) and in the test with HEK293 (setting [2]) were 7.59 and 7.36, respectively.

Regarding `O=C(N[C@H]1C[C@H](c2nnc(-c3ccncn3)n2-c2ccccc2Cl)C1)c1ccnc2cccnc12` [Example 5, N-((1S,3r)-3-(4-(2-chlorophenyl)-5-(pyrimidin-4-yl)-4H-1,2,4-triazol-3-yl)cyclobutyl)-1,5-naphthyridine-4-carboxamide], the pIC50 is 9.07 at TNKS2 (setting [1]) and 9.00 in the test on HEK293 (setting [4]).

In the case of `CS(=O)(=O)c1ccc(-c2nnc([C@H]3C[C@H](NC(=O)c4ccc(F)cn4)C3)n2-c2ccccc2F)nc1` [Example 107, 5-fluoro-N-((1S,3r)-3-(4-(2-fluorophenyl)-5-(5-(methylsulfonyl)pyridin-2-yl)-4H-1,2,4-triazol-3-yl)cyclobutyl) picolinamide], the values for the pIC50 at TNKS2 (setting [1]) and with HEK293 (setting [2]) were 8.24 and 7.49, respectively.

With `CCOc1ccc(-c2nnc(C34CC(NC(=O)c5ccccn5)(C3)C4)n2-c2ccccc2)nc1` [Example 66, N-(3-(5-(5-ethoxypyridin-2-yl)-4-phenyl-4H-1,2,4-triazol-3-yl)bicyclo[1.1.1]pentan-1-yl)picolinamide], the figures for the pIC50 on TNKS2 (setting [1]) and in the test on HEK293 (setting [2]) were 7.46 and 6.91, respectively.

On to `CCOc1ccc(-c2nnc(C34CC(NC(=O)c5ccnc6cc(F)cnc56)(C3)C4)n2-c2ccc(C)s2)nc1` [Example 86, N-(3-(5-(5-ethoxypyridin-2-yl)-4-(5-methylthiophen-2-yl)-4H-1,2,4-triazol-3-yl)bicyclo[1.1.1]pentan-1-yl)-7-fluoro-1,5-naphthyridine-4-carboxamide], for which the pIC50 is 8.66 on TNKS2 (setting [1]) and 8.77 with HEK293 (setting [2]).

On to `CCOc1ccc(-c2nnc([C@H]3C[C@H](NC(=O)c4ccnc5cccnc45)C3)n2-c2ccncc2)nc1` [Example 168, N-((1r,3r)-3-(5-(5-ethoxypyridin-2-yl)-4-(pyridin-4-yl)-4H-1,2,4-triazol-3-yl)cyclobutyl)-1,5-naphthyridine-4-carboxamide], for which the pIC50 at TNKS2 (setting [1]) was 8.27; in the test on HEK293 (setting [3]), 7.89.
